Data as given in patent US12545653B2, “Compound as PPAR agonist and application thereof” (USA Elixiria Biotech Inc., priority 2019, dated 2026).
pEC50: −log10 of the molar value.

Legend:
klotho gene promoter = assay: In vitro transcriptional activity of klotho gene (KL-Luc-3 luciferase cell line); type: cell-based; conditions: 16 h, KL-Luc-3 cells, 16 hours incubation
Source text: The activities of these carbonyl-containing cyclic compounds are indicated by the increased expression of klotho gene. […] The present invention retains the DNA fragment of the klotho gene promoter, but replaces the DNA sequence of the coding region of the klotho gene with those of luciferase, so that the degree of activation of the klotho gene promoter and the expression of the klotho gene will be sensitively determined by detecting the luciferase luminescence signal.
Klotho is an important downstream gene of PPARγ pathway. The following experiments tested the properties of the compounds in Table 2 and 3 to activate the klotho gene in vitro. First, a stable cell line, KL-Luc, was constructed. The klotho gene carried by the cell line retained the DNA sequence of klotho gene promoter, but the coding sequence of the klotho gene was replaced with luciferase. KL-Luc fragment includes a promoter sequence of the klotho gene (a DNA region of 18,000 base pairs in length upstream of the transcription start site of the gene) and a luciferase-encoding sequence. To construct the KL-Luc sequence containing lentiviral vector, the KL-Luc fragment was cloned into the pDONR vector using BP recombinase, so that the target fragment had attL recombination sites on both sides. Then the KL-Luc fragment was transferred from the pDONR vector to a lentiviral vector (without exogenous promoter) pLenti6/BLOCK-IT-DEST. The constructed lentiviral vector of the target fragment was then transfected into HEK293T cells, and then the KL-Luc gene lentiviral expression vector and the […] were co-transfected into HEK293T cells to perform lentiviral packaging. The virus was harvested, and virus titer was calculated. And the lentivirus was used to infect target cells. The stable strains were screened by adding drugs. Finally, monoclonal cell lines were selected from polyclonal cells by cell cloning. The effective luciferase expression of each monoclonal cell line was determined by quantitative polymerase chain reaction (qPCR). The inventors chose a third monoclonal cell line (KL-Luc-3) to continue the compound screening. The compounds of interest were the compounds in Table 2 and 3. At the same time, rosiglitazone and pioglitazone were used as a control. KL-Luc-3 cells were divided into 96-well plates at 5000 cells in 80 microL per well, cultured in a 37° C. carbon dioxide incubator with serum-free Duchenne's Modified Eagle's Medium (DMEM) for 6 hours, and then the compounds were added to a final concentration of 0, 0.1, 0.3, 1, 3, 10, 30 micromole/L, with each concentration in triplicate. After 16 hours of incubation, the SteadyLite (PerkinElmer, Waltham, MA) and the GloMax Microplate Luminometer (Promega, USA) were used for quantitation of luciferase activity. The amount of luminescence emitted from each well is positively related to the transcriptional activity of the klotho promoter. A three-parameter Sigmoid function curve was used to fit the obtained data. The abscissa represents the logarithmic value of the concentration, and the ordinate represents the percentage of the activity relative to those of the control. […] In Statistical analysis, the coefficient of variation is used to measure the robustness and repeatability of the experiment. […] The difference is significant with P<0.05. EC50 is a parameter of its activity. The lower the EC50 value, the higher the activity of corresponding compound.

HEK 293T cells = assay: Inhibition of reactive oxygen species production (ROS-Glo H2O2 Assay); type: cell-based, human; conditions: 18 hours incubation; for inhibition of active oxygen production (up to), compared to the DMSO control: 0-30 micromole/L; for pEC50: Homo sapiens, HEK-293T, 18 h
Protocol: Mitochondrial reactive oxygen species-induced oxidative stress is the source of many diseases. This experiment is used to test whether the carbonyl-containing cyclic compounds provided by the present invention can reduce the production of reactive oxygen species. HEK 293T cells were divided into 96-well plates at 5000 cells per well, cultured in a 37° C. carbon dioxide incubator with serum-free Duchenne's Modified Eagle's Medium (DMEM) for 6 hours, and then representatives for compounds listed in Table 2 and 3 were added to a final concentration of 0, 0.1, 0.3, 1, 3, 10, 30 micromole/L, with each concentration in triplicate. After 18 hours of incubation, the reactive oxygen species detection kit (ROS-Glo™ H2O2 Assay) and the GloMax microplate fluorescence detector (Promega, USA) were used to detect reactive oxygen species production. At the same time, pioglitazone was used as a control. The amount of fluorescence is positively related to the production of reactive oxygen species. A three-parameter Sigmoid function curve was used to fit the obtained data. The abscissa represents the logarithmic value of the concentration, and the ordinate represents the percentage of reduced reactive oxygen species production relative to those of the control. Then EC50 value was calculated with professional software.

[1] = Blood-brain barrier permeability: brain concentration after a single injection; type: in vivo, rat; conditions: for AUC(0-t): male, rat, in vivo, ip, 10 mg/kg
Protocol: The blood-brain barrier permeability of carbonyl-containing cyclic compounds is determined in in vivo studies. Healthy male rats used in the study were divided into compound group and control group. […] The brains were dissected, heated immediately at boiling water for 2 min, homogenized with methanol, and centrifuged. The upper layer was collected and dried under vacuum to remove solvents, and then resuspended in methanol. The above samples are filtered through a 0.45 micron nylon membrane, and then 20 microL of sample were load into a high-performance liquid chromatographic (HPLC) system (Model LC-16P, Shimadzu, Japan) to perform quantitative analysis.

[2] = tested on: MPTP-HCl Parkinson's disease model mice; assay: Parkinson's disease model (MPTP-HCl), beam traversal test; conditions: MPTP-HCl/probenecid mice, 5 mg/kg body weight intraperitoneal daily, 35 days
Protocol: Three month-old male wild type mice were used in the experiment. The treatment lasted for a total of 35 days. […] For all abovementioned groups, Motor skills were assessed on the 36th to 40th days after compound administration. Beam traversal test is a method commonly used in academia to detect movement coordination in animals with Parkinson's disease. […] The mice were first trained for 2 consecutive days, and taught to trained to traverse the length of the beam. On the day of the test, a mesh grid (1 cm squares) of corresponding width was placed over the beam surface leaving a ˜1 cm space between the grid and the beam surface. Animals were then videotaped while traversing the grid-surfaced beam for a total of five trials. An error was counted when, during a forward movement, a forelimb or hindlimb slipped through the grid. The number of errors made per step (referred to as “error per step scores”) was counted. An analysis of variance (ANOVA) and Dunnett post hoc comparison test are used to compare the significance of the differences between different groups of data. The difference is significant with P<0.05.

db−/db− mice = assay: Diabetic peripheral neuropathy model, Von Frey threshold, sciatic nerve ROS and MDA; type: in vivo, mouse; conditions: in food 10 mg/kg body weight/day (pregabalin 30 mg/kg body weight/day)
Protocol: Male 5-6 week-old male db^−/db^− mice were used in the experiment, and their normoglycemic heterozygous littermates were used as controls. db^−/db^− is a commonly used type 2 diabetes animal model. The compounds was dissolved in DMSO and mixed into food pellets. The animals were given ad libitum access to the pellets, beginning from 8 to 9 weeks of age for 10 weeks. […] The method for detecting mice hindlimb hypersensitivity is performed using Von Frey filaments. […] The difference is significant with P<0.05. The increase of mitochondrial reactive oxygen species (ROS) in the sciatic nerve of mice, which in turn leads to the increase of intracellular malondialdehyde (MDA), is the etiology of this type of neuropathic pain. The efficacy of compound to treat the root cause of the disease was evaluated by measurement of the levels of MDA and mitochondrial ROS from the sciatic nerves.

APP/PS1 transgenic mice = assay: Alzheimer's disease model, eight-arm radial water maze and brain gene expression; type: in vivo, mouse; conditions: 30 days in food, 10 mg/kg body weight/day (donepezil 3 mg/kg body weight/day), 5 on the first day
Source text: A common indicator used in academia in memory and dementia experiments is the number of errors in the water maze (reference memory). More errors mean poorer memory. On the last 3 days of dosing, eight-arm radial water maze was used by experimenters who were blind to drug treatment. As a classic experimental instrument, to detect slight deficits in learning and memory, the eight-arm water maze is more sensitive than not only Morris maze, but also Six-arm radial water maze. For details, see reference 8: Alamed J et al. Two-day radial-arm water maze learning and memory task; robust resolution of amyloid-related memory deficits in transgenic mice [J]. […] This experiment uses an eight-arm water maze built in accordance with the above literature. The eight-arm water maze is placed in a basin with an interior diameter of 102 cm. Each arm measures 30 cm long, 14.5 cm wide, and 40 cm high. Escape platform is located at the end of one of the arms. In the reference memory version of the task described here, the goal arm is held constant for all trials, with a different start arm on successive trials. On day one, mice received 12 trials, with trials alternating between visible and hidden platform. On day 2 and 3, mice received 12 additional trials but the platform was kept hidden throughout the trials. Entry into an incorrect arm was scored as a spatial reference error. Errors were averaged into three trial blocks, with four blocks per day, e.g., the first block (the 1st to 3rd trial), the second block (the 4th to 6th trial), and so on. […]. The line charts were made with the number of blocks as the abscissa and the average of the number of errors as the ordinate. At the end of the experiments, the cerebral cortex and hippocampus of the mice were removed, RNA was extracted, and the expression of many genes was analyzed by semi-quantitative RT-PCR. […] The difference is significant with P<0.05.

PPARγ = molecular target: T1, PPARγ (Homo sapiens, UniProt P37231); assay: In vitro transcriptional activity of PPARγ gene (PPRE-luciferase reporter, HEK 293 T cells); type: cell-based; conditions: HEK 293 T cells transfected with PPARγ expression and PPRE-luc plasmids, 21 hours; read-out: EC50 of PPARγ gene activation
T1 construct: expressed in transfected cells; host or cells: HEK 293 T cells
T1 sequence (P37231 1-505): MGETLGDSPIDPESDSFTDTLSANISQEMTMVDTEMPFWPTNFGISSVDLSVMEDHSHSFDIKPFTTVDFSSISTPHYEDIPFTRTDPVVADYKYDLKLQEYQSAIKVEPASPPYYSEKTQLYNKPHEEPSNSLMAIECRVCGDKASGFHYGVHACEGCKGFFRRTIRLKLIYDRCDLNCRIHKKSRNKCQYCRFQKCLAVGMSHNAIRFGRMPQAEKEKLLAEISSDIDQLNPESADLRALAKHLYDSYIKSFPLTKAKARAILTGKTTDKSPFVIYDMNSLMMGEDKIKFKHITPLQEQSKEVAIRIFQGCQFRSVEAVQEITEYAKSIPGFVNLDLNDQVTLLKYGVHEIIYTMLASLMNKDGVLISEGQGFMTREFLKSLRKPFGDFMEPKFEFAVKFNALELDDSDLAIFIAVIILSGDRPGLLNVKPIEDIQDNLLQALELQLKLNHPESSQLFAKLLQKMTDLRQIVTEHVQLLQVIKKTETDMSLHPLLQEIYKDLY
Source text: In this experiment, the PPARγ gene was used as target gene to detect the in vitro transcription activity of the compounds. The compounds of interest were detected was first dissolved with dimethyl sulfoxide (DMSO). […] First two plasmids were constructed: PPARγ protein expression plasmid and luciferase reporter plasmid. They are both from the lentiviral plasmid pLV-CMVIE-ZsGreen-Puro, whose DNA sequence contains the cytomegalovirus immediate early (CMVie) promoter, ZsGreen and Puro dual reporter. The PPARγ expression plasmid pLV-CMVIE-PPAR[…]-ZsGreen-Puro was constructed by cloning full-length coding sequences of the pertinent receptors into pHBLV-CMVIE-ZsGreen-Puro vector. To construct the luciferase (luc) reporter plasmid pLV-PPRE-luc-ZsGreen-Puro, the CMVie promoter in plasmid pHBLV-CMVIE-ZsGreenPuro was first replaced by a peroxisome proliferator responsive element (PPRE) containing fragments comprised the nucleotide sequence 50-[…], repeated four times in tandem, to generate a new plasmid, at a multiple cloning site of which the luc gene was then inserted. […] The compounds used for screening are representatives for compounds listed in Table 2, and Tables 3 of the present invention. […] Cells were distributed in 10-cm tissue culture plates at a density of 5.5 million cells per plate, and then transfected with the luciferase reporter plasmid (6 nanogram/plate) and the PPARγ expression plasmid (18 nanogram/plate). Cells were cultured for 6 hours. […] Then the cells were distributed in 96-well plates at a density of 20,000 cells per well. After incubation for 6 h, compounds or control with different concentration were placed into each well, resulting in the finical concentration of […] with each concentration in triplicate. Twenty-one hours later, promoter activation was detected by the addition of SteadyLite (PerkinElmer, Waltham, MA) and GloMax 96 Microplate Luminometer (Promega, Madison, WI). The amount of Luminometer emitted from each well is positively correlated with the expression of PPARγ gene. A three-parameter Sigmoid function curve was used to fit the obtained data. The abscissa represents the logarithmic value of the concentration, and the ordinate represents the percentage of PPARγ gene activation relative to those of the control. […] In Statistical analysis, the coefficient of variation is used to measure the robustness and repeatability of the experiment. […] The difference is significant with P<0.05. EC50 is a parameter of its activity.

[3] = tested on: dIoN-CCI rat model of trigeminal neuropathic pain; assay: Trigeminal neuralgia model (dIoN-CCI), Von Frey mechanical threshold; conditions: dIoN-CCI rats
Source text: A common rat model of trigeminal neuralgia is a chronic compression injury model (CCI) caused by ligation of the infraorbital nerve (IoN). In the present study, an improved rat model of trigeminal neuropathic pain was used, in which CCI is induced by ligation of distal segment of IoN (dIoN). Wild type male Sprague-Dawley rats with body weight 250 to 260 grams underwent dIoN-CCI surgery experiments. The mechanical threshold of pain in rats without surgery experiments will exceed 6 grams. If the dIoN-CCI surgery is successful, it will reduce the pain threshold to less than 2 grams.
The mice were divided into the following 11 groups with 4 to 5 mice in each group. The formulation used for transdermal treatment is cream. […] The compound administration of each group starts on the third day after successful dIoN-CCI surgery. […] The method for detecting rat facial hypersensitivity is performed using Von Frey filaments. An analysis of variance (ANOVA) and Dunnett post hoc comparison test are used to compare the significance of the differences between different groups of data. The difference is significant with P<0.05.

[4] = compared with healthy control group

Row | pEC50 (klotho gene promoter) | AUC(0-t) ([1]; AUC0-6 h) [ng·h/mL] | AUC(0-t) ([1]; AUC0-24 h) [ng·h/mL] | pEC50 (PPARγ) | time to maximum brain concentration (Tmax) ([1]; rat brain, 10 mg/kg intraperitoneal, single injection) [h] | SMILES | inhibition of active oxygen production (up to), compared to the DMSO control (HEK 293T cells) | pEC50 (HEK 293T cells) | number of errors per step in beam traversal test compared with disease control group [2] | level of MDA in the sciatic nerve after 10 week treatment (db−/db− mice; [4]) | level of mitochondrial ROS in the sciatic nerve after 10 week treatment (db−/db− mice; [4]) | mechanical pain threshold after 10 week treatment (db−/db− mice; compared with normal control group) | number of errors in water maze on the third day (APP/PS1 transgenic mice) | minimum effective anti-allodynic dose ([3]; oral) [mg/kg] | mechanical threshold 2 hours after oral administration ([3]; oral 300 mg/kg body weight, Von Frey) [g]
1 | 5.01 | 774 | 1930 | – | – | CN(CCOc1ccc(CC2SC(=O)NC2=O)cc1)c1ccccn1 (stereo not drawn) [rosiglitazone, reference compound] | up to 58% | 5.60 | – | – | – | – | – | – | –
2 | – | – | – | – | – | CCc1ccc(CCCCc2ccc3c(c2)C(=O)CC3)cc1 [ELB00825, 6-(4-(4-ethylphenyl)butyl)-2,3-dihydro-1H-inden-1-one] | – | > 5.00 | significantly lower | reduced | reduced | significantly improved | comparable to that of ELB00824 | – | –
3 | > 5.01 | – | – | > 5.19 | – | CCc1cccc(CC/C=C/c2ccc3c(c2)C(=O)CC3)c1 [ELB001203, 6-((1E)-4-(3-ethylphenyl)but-1-en-1-yl)-2,3-dihydro-1H-inden-1-one] | – | > 5.52 | – | – | – | – | – | – | –
4 | – | 1510 | 3520 | – | 1 | CCc1ccc(CCOc2ccc(CC3SC(=O)NC3=O)cc2)nc1 (stereo not drawn) [pioglitazone, reference compound] | up to 42% | 6.15 | – | – | – | – | – | 300 | 4.9 ± 0.9
